From US4177269A, “Novel 17-esters of 17α-hydroxy gestogens, compositions containing such compounds, processes for their preparation and methods of treatment therewith” (Aktiebolaget Leo, priority 1976, dated 1979) come the findings set out here.

For data set [1], the system named is Walker carcinosarcoma 256. The data set can be described thus: Walker carcinosarcoma 256 tumour growth inhibition in rats. The format is in vivo, Sprague-Dawley rats. Details: ED50: unit: mg/kg. The following applies: daily p.o. for 5 days, dose causing 50 percent reduction of tumour size, killed 9th day. In a few lines:
(§1)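 Sprague-Dawley rats implanted with Walker 256 tumour pieces 2-4 mm across. Compound dosed p.o. daily for 5 days from the day after implantation, and animals killed on day 9. Tumour weights compared with controls. ED50 is the dose giving 50% tumour-size reduction, and LD50 is the dose giving 50% lethality.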

Assay in data set [2]: as above
The following applies: rat, in vivo, po, daily p.o. for 5 days. Type of data set: in vivo, Sprague-Dawley rats. Details: ED50: unit: mg/kg. In a few lines: as §1

For data set [3], the system named is Lymphatic leukemia L 1210. The data set can be described thus: Lymphatic leukemia L 1210 survival in mice. Type of data set: in vivo, CDF1 (C3H×DBA/2)F1 mice. The following applies: one i.p. injection; for Weight change Δv: T - C up to the 5th day. The text has this: The experimental design and the interpretation of the results are in accordance with the standards set by the CCNSC (Cancer Chemotherpy Reports, January 1959 and December 1962).
Lymphatic leukemia L 1210.
Experimental animals: CDF1 (C3H×DBA/2)F1 mice
Tumour implant: 10^5 tumour cells i.p.
Therapy: One injection i.p. on the day following implanta-
Evaluation: (a) The survival time of the test animals (t)
expressed as the percentage of that of control animals (c).
(b) Weight change in the test animals (T) compared with that
of the control animals (C) up to the 5th day.
(c) The mortality rate must not exceed 35% in the test
animals on the 5th day of therapy.

The next data set deals with Hepatome AH 130. The data set is described as follows: Hepatome AH 130 tumour growth inhibition in rats. The format is in vivo, Sprague-Dawley rats. Details: ED50: unit not given here. The following applies: one i.p. injection, dose causing 50 percent reduction of tumour size, killed 8th day. In a few lines:
(§2)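 Sprague-Dawley rats implanted i.p. with 5 × 10^6 tumour cells, given a single i.p. injection the day after implantation, and killed on day 8. Tumour weights compared with controls; ED50 is the dose halving tumour size, LD50 the dose lethal to 50% of animals.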

The nature of data set [4]: Hepatome AH 130 tumour growth inhibition in rats. The format is in vivo, Sprague-Dawley rats. The following applies: rat, in vivo, ip, one i.p. injection. Also on record: ED50: unit not given here. An outline of the steps: as §2

One may read the LD50 as the dose at which mortality reaches 50%. In the case of `CC(=O)[C@@]1(OC(=O)COC(=O)c2ccc(C)c(N(CCCl)CCCl)c2)CC[C@H]2[C@@H]3CCC4=CC(=O)CC[C@]4(C)[C@H]3CC[C@@]21C` [Compound 3:7, 17α-/3-(N,N-bis(2-chloroethyl)amino)-4-methylbenzoyloxyacetoxy/pregn-4-ene-3,20-dione], the ED50 in data set [1] is 16; in the data set with Hepatome AH 130 it was 2. In addition, the LD50 in data set [2] (dose causing 50 percent lethality) is above 250 mg/kg; in data set [4] (dose causing 50 percent lethality, column head not given), above 250 mg/kg. The values for the selectivity ratio in data set [2] (read-out: T.I. (LD50/ED50)) and in data set [4] (read-out: T.I. (LD50/ED50)) were above 15 and above 125, respectively. Also, the results for the “Effect (survival time of test animals as percentage of that of control animals)” value in data set [3] (250 mg/kg) and in data set [3] (500 mg/kg) were 130% and 172%, respectively. The values for the Mortality in data set [3] (250 mg/kg) and in data set [3] (500 mg/kg) were 0/20 and 0/19, respectively. Also, the “Weight change Δv” value in data set [3] (250 mg/kg) is listed as -4.0 g; in data set [3] (500 mg/kg) it was -5.2 g.
